Results from article PMC12281424, “A Rac-specific competitive inhibitor of guanine nucleotide binding reduces metastasis in triple-negative breast cancer” (Cell Reports Medicine, 2025).

How the values were obtained:
RAC1 [1] = target: T1, RAC1 (Mus musculus, UniProt P63001); test: RAC-GTP pull-down assay, EGF-stimulated NIH/3T3 fibroblasts; type: cell-based; conditions: 10^-5 M
T1 construct: endogenous in cells; host or cells: NIH/3T3 fibroblasts (ATCC CRL-1658), EGF-stimulated
Protocol: Figure 2 Identification of a new RAC1 inhibitor (A) Effect of A41 and NSC23766 on ruffle formation (white arrows) induced by EGF (10 ng/mL) in NIH 3T3 cells in serum-free culture medium (CTL). Inhibitors were added at indicated concentration 1 h prior to EGF stimulation. To assess cytoskeleton organization, cells were incubated with Alexa Fluor 488 phalloidin to visualize F-actin. Results shown are representative of 3 independent experiments. Corresponding concentration-response curves have been established by counting the percentages of cells with ruffles (scale bars: 10 μm). (B) Immunoblot analysis and associated quantification of RAC-GTP level and total RAC expression in NIH 3T3 cells stimulated by EGF (10 ng/mL, 5 min) and pre-incubated or not (−) with NSC23766, A41, or A415 at 10^−5 M for 1 h (∗∗∗p < 0.001 vs. controls without EGF stimulation, ^###p < 0.001 vs. controls with EGF stimulation) (N > 3). (C) Representative surface plasmon resonance (SPR) sensograms of binding of immobilized RAC1 with increasing concentrations of A41 with or without EDTA (20 mM) (N > 3). (D) Representative in vitro nucleotide exchange catalyzed by the DH-PH of TIAM (10 nM) measured by the binding of fluorescent mant-GTP (1 μM) to RAC1 (0.5 μM, preloaded with GDP) in the presence of indicated concentrations of A41 (out of N = 6). Dotted lines correspond to the experimental curves, and continuous lines represent the fit of experimental points. (E) Kobs and Kmax were determined in each condition (N = 6). (F) Predicted binding modes of A4 to the NSC23766-binding site (left) or the GDP-binding pocket of RAC1 (right). In the NSC23766-binding site of RAC1, the compound A4 (carbon atoms in blue) makes 2 hydrogen bonds (green dotted line) with Ser71 (S71) and 10 hydrophobic interactions (pink dotted line) with Ala3 (A3), Lys5 (K5), Val36 (V36), Trp56 (W56), Tyr64 (Y64), and Leu67 (L67) leading to a docking score of −6.03 kcal/mol. The GDP molecule is shown with fine line. The P loop is shown in yellow, the switch 1 in orange, and the switch 2 in green. […]
Pull-down assay using GST-PBD fusion proteins were performed on NIH-3T3 lysates to assess RAC1 activity as previously described.[63] The precipitated active RAC was subjected to SDS-PAGE and detected by immunoblot with anti-RAC1 antibody (BD biosciences) (dilution 1/1000). […]
(§1) screening molecules (10^-5 M) on NIH/3T3 cell adhesion (xCELLingence Real-time cellanalysis, Agilent), migration (CYTOO Mobility plates) and proliferation (xCELLingence Real-time cell analysis, Agilent) .The level of RAC activation is determinedby the detection of RAC-GTP (pull-down assay) in NIH/3T3 cell treated with EGF (10 ng/mL) and the differentmolecules and normalize to the level of RAC activity measuredin the presenceof the reference RAC inhibitor EHT1864.

NIH/3T3 cell adhesion = test: Cell adhesion assay (xCELLigence impedance); type: cell-based; conditions: 10^-5 M
Protocol: NIH3T3cells (10000/well) were seeded in a 96 well plate microtiter xCELLigence assay plate (E-Plate) (ACEA Biosciences Inc.) and placed on the Real-time xCELLigence Cell Analyzer (Roche Applied Science) platform at 37°C to measure the “cell index” every 5 min for a period of 6 h. The cell index unit is defined as (Rn − Rb)/15. Rn is the cell electrode impedance of the well when it contains cells. Rb is the background impedance of the well with the media alone.
as §1, with “Supplementary Fig. 3: Example of one pharmacophore model used for virtual screening. (a) The pharmacophore model shown was created based on RAC1 (grey) and NSC23766 (orange) interaction. […] (b) Impact of different screening” for “screening”
(§2) Supplementary Fig. 4: A41 inhibits RAC-dependent cell functions. (a) Representative records of single NIH/3T3 cell migration on micropatterned fibronectin lines (CYTOO Mobility plates) in the absence (Control)and presenceA41 at 10^-5 M (left panel) and corresponding quantification of migration speed (right panel) (scale bar: 20µm). […] (b) Typical curves showing the cell index representing the adhesion of NIH/3T3 fibroblast (xCELLingence Real-time cell analysis, Agilent) under control condition (Control) and pre-treated with 10 µM A41 or NSC23766 (left panel) and corresponding quantification of cell adhesion speed (right panel). […]

NIH/3T3 cell migration = test: 1D cell migration (CYTOO plates); type: cell-based; conditions: 10^-5 M
Protocol: NIH3T3cells (1000/well) were seeded in a 96 well plate with […] fibronectin stripes (CytooPlates Motility, CYTOO) in medium with 1% SVF and allowed to spread for 4 h before capturing time-lapse images for 24 h (image/10 min) on a Widefield Leica DMI 6000B drove with Metamorph software. Cells speed was measured with ImageJ software.
Supplementary Fig. 3: Example of one pharmacophore model used for virtual screening. (a) The pharmacophore model shown was created based on RAC1 (grey) and NSC23766 (orange) interaction. The pharmacophore model is formed by two hydrogenbond acceptor(HBA)features,one orientedtowardsthe hydroxylgroup of Ser71 (S71) and the other towards the amine group of Gln74 (Q74), one hydrogen bond donor (HBD) feature pointed to the oxygenatom of Leu70 (L70) and two hydrophobic features (HY) located on certain carbon atoms of NSC23766 and facing residues Val36 (V36), Ala59 (A59), Tyr64 (Y64) and Leu67 (L67). The spheres correspond to locationconstraint. […] (b) Impact of different screening molecules (10^-5 M) on NIH/3T3 cell adhesion (xCELLingence Real-time cellanalysis, Agilent), migration (CYTOO Mobility plates) and proliferation (xCELLingence Real-time cell analysis, Agilent) .The level of RAC activation is determinedby the detection of RAC-GTP (pull-down assay) in NIH/3T3 cell treated with EGF (10 ng/mL) and the differentmolecules and normalize to the level of RAC activity measuredin the presenceof the reference RAC inhibitor EHT1864.
as §2

[2] = system: NIH/3T3 cell proliferation; test: Cell proliferation (xCELLigence); type: cell-based; conditions: 10^-5 M
Source text: Supplementary Fig. 3: Example of one pharmacophore model used for virtual screening. (a) The pharmacophore model shown was created based on RAC1 (grey) and NSC23766 (orange) interaction. The pharmacophore model is formed by two hydrogenbond acceptor(HBA)features,one orientedtowardsthe hydroxylgroup of Ser71 (S71) and the other towards the amine group of Gln74 (Q74), one hydrogen bond donor (HBD) feature pointed to the oxygenatom of Leu70 (L70) and two hydrophobic features (HY) located on certain carbon atoms of NSC23766 and facing residues Val36 (V36), Ala59 (A59), Tyr64 (Y64) and Leu67 (L67). The spheres correspond to locationconstraint. The pharmacophoremodel was completedby thirteen exclusion spheres centered on the main residues of RAC1 defining the binding site. The P loop, the switch 1 and the switch 2 are shown in yellow, orange and green respectively. (b) Impact of different screening molecules (10^-5 M) on NIH/3T3 cell adhesion (xCELLingence Real-time cellanalysis, Agilent), migration (CYTOO Mobility plates) and proliferation (xCELLingence Real-time cell analysis, Agilent) .The level of RAC activation is determinedby the detection of RAC-GTP (pull-down assay) in NIH/3T3 cell treated with EGF (10 ng/mL) and the differentmolecules and normalize to the level of RAC activity measuredin the presenceof the reference RAC inhibitor EHT1864.

[3] = system: RAC1-GTP levels in MDA-MB-468 Luc cells; test: RAC-GTP immunofluorescence; type: cell-based; conditions: 10^-5 M, 1 h
Protocol: Luciferase (Luc, green) was used to detect the cells. […] (C) Quantification of colony number of indicated cancer cell lines in the presence of A41 (10 μM) expressed as the percentage of control in the absence of A41. […] (D) Immunoblot analysis and corresponding quantification of AKT and P44/42 expression and phosphorylation (pAKT, p44/42) in MDA-MB-468 Luc cells in the absence (−) and presence of NSC23766 or A41 (1 h at 10^−5 M). […] (E) 3D invasion assay of MDA-MB-468 Luc and cancer-associated fibroblasts (CAFs) and corresponding quantification (scale bars: 200 μm).
After indicated treatments, cells were fixed with 4% paraformaldehyde and permeabilized in PBS 0.5% Triton X-100. To assess RAC1 activity, cells were then incubated with RAC-GTP antibody (26903, NewEast Biosciences, King of Prussia, Pa) (dilution 1/500) overnight at room temperature, followed by secondary Alexa 568-labeled anti-mouse antibody (dilution 1/1000). Cancer cells were detected with firefly luciferase antibody (ab21176, Abcam) (dilution 1/500) overnight at room temperature, followed by secondary Alexa 488-labeled anti-rabbit antibody (dilution 1/1000). To assess cytoskeleton organization, cells were incubated with Alexa Fluor 488 phalloidin (A12379, Invitrogen) to visualize F-actin. After staining, cells were mounted in Prolong gold antifade reagent with DAPI and images were captured by a fluorescence microscope.

RAC1 [4] = target: RAC1 (Homo sapiens, UniProt P63000); test: Nucleotide exchange kinetics (mant-GTP/mant-GDP fluorescence); type: biochemical; design: Full-length RAC1 carrying a 6xHis tag in C-terminus was purified as previously described; 6xHis (C); made in house
Protocol: Figure 2 Identification of a new RAC1 inhibitor (A) Effect of A41 and NSC23766 on ruffle formation (white arrows) induced by EGF (10 ng/mL) in NIH 3T3 cells in serum-free culture medium (CTL). Inhibitors were added at indicated concentration 1 h prior to EGF stimulation. To assess cytoskeleton organization, cells were incubated with Alexa Fluor 488 phalloidin to visualize F-actin. Results shown are representative of 3 independent experiments. Corresponding concentration-response curves have been established by counting the percentages of cells with ruffles (scale bars: 10 μm). (B) Immunoblot analysis and associated quantification of RAC-GTP level and total RAC expression in NIH 3T3 cells stimulated by EGF (10 ng/mL, 5 min) and pre-incubated or not (−) with NSC23766, A41, or A415 at 10^−5 M for 1 h (∗∗∗p < 0.001 vs. controls without EGF stimulation, ^###p < 0.001 vs. controls with EGF stimulation) (N > 3). (C) Representative surface plasmon resonance (SPR) sensograms of binding of immobilized RAC1 with increasing concentrations of A41 with or without EDTA (20 mM) (N > 3). (D) Representative in vitro nucleotide exchange catalyzed by the DH-PH of TIAM (10 nM) measured by the binding of fluorescent mant-GTP (1 μM) to RAC1 (0.5 μM, preloaded with GDP) in the presence of indicated concentrations of A41 (out of N = 6). Dotted lines correspond to the experimental curves, and continuous lines represent the fit of experimental points. (E) Kobs and Kmax were determined in each condition (N = 6). (F) Predicted binding modes of A4 to the NSC23766-binding site (left) or the GDP-binding pocket of RAC1 (right). In the NSC23766-binding site of RAC1, the compound A4 (carbon atoms in blue) makes 2 hydrogen bonds (green dotted line) with Ser71 (S71) and 10 hydrophobic interactions (pink dotted line) with Ala3 (A3), Lys5 (K5), Val36 (V36), Trp56 (W56), Tyr64 (Y64), and Leu67 (L67) leading to a docking score of −6.03 kcal/mol. The GDP molecule is shown with fine line. The P loop is shown in yellow, the switch 1 in orange, and the switch 2 in green. In the GDP-binding pocket, A4 establishes 6 hydrogen bonds with Gly15 (G15), Lys16 (K16), Cys18 (C18), and Lys116 (K116), 1 carbon hydrogen bond with Lys116, and 9 hydrophobic interactions with Cys18, Ile33 (I33), Lys116, Leu119 (L119), and Leu160 (L160), resulting in a docking score of −10.32 kcal/mol.
Figure 3 Inhibitory mechanism of A41 (A–D) RAC1 activity was monitored by the change in mant-GTP/GDP fluorescence induced by its binding to or releasing from RAC1 (A–D). GDP-bound RAC1 (0.5 μM) was incubated with TRIO (10 nM) and the indicated concentrations of mant-GTP without and with A41 (5 μM) (A–C). Mant-GDP-bound RAC1 (0.5 μM) was incubated with TRIO (10 nM) and GTP (1 μM) without and with A41 (5 μM) (D). AU: arbitrary fluorescence units. All experiments were done in triplicate. Kmax and Kmin are expressed as mean ± SEM. ∗∗p < 0.01 and ∗∗∗p < 0.001 vs. TRIO. (E) Deconvoluted mass spectra generated from crude mass spectrum analyses to evaluate RAC1 photolabeling with [N3]-A41 by LC-HRMS on native protein. (F) Representative mass spectra of both labeled and unlabeled […] peptide during LC-HRMS analysis of RAC1 photolabeling with [N3]-A41 after trypsin digestion. (G) Predicted binding mode of A41 to the GDP-binding pocket of RAC1. Compound A41 (orange) makes 4 hydrogen bonds (green dotted line) with Lys16 (K16), Cys18 (C18), and Lys116 (K116), 2 carbon hydrogen bond (light green dotted line) with Val14 (V14) and Lys116 (K116), and 7 hydrophobic interactions (pink dotted line) with Cys18 (C18), Phe28 (F28), Lys116 (K116), Ala159 (A159), and Leu160 (L160). The P loop is shown in yellow, the switch 1 in orange, and the switch 2 in green.
Full-length RAC1 carrying a 6xHis tag in C-terminus was purified as previously described.[64] Full-length RAC2, RHOG, RHOA and CDC42 were purified as previously described.[64]^,[65] […]

SMILES | Rac-GTP level (relative to EHT1864) (RAC1 [1]; EGF 10 ng/mL) | Adhesion (% inhib) (NIH/3T3 cell adhesion) | Migration (% inhib) (NIH/3T3 cell migration) | Proliferation (% ctrl) [2] | effect on RAC1 activity [3] | RAC1 activation (active GTP-bound RAC1) (RAC1 [1]; 1 h, EGF 10 ng/mL 5 min) | Inhibition of RAC1 activity (nucleotide exchange assay) (RAC1 [4])
O=c1cc(CN2CCOCC2)occ1OCCCCCSc1ccnc2cc(C(F)(F)F)ccc12 [EHT1864] | 1.00 | 32% | 35% | 101% | no | – | –
CCN(CC)CCCC(C)Nc1nc(C)cc(Nc2ccc3nc(C)cc(N)c3c2)n1 (centres unmarked) [NSC23766] | – | 34% | 20% | 131% | little effect | no significant effect | –
COc1ccc(OC)c(NS(=O)(=O)c2ccc(NC(=O)CCSc3ccc(N=[N+]=[N-])cc3)cc2)c1 [[N3]-A41] | – | – | – | – | – | – | 46%
